Test results reported in US10865238B1, “Complement factor H antibodies” (Duke University, priority 2017, dated 2020).

B1: Ab7955 (antibody, V domains shown)
VH: LVESGGGVVRPGRSLRLSCVASGFTFNAYGMHWVRQGPGKGLEWLAVISYEGKTVYYADSVKDRFTISRDNSRNTVSLHLNNLRGEDTAVYYCAKGSASAAVLQHWGQGTLVSVTS
VL: MTQSPGSLAVSLGSRATINCKSSRSLLYRSNNKNYLAWYQQKPGQSPRLLIYWASSRESGVPDRFSGGGSGTSFTLTISSLQAEDVAVYYCQQYFNPPWTFGQGTKVEIK
notes: Recombinant human mAb; also called CFH mAb 7955

Tests used:
[1] = test system: H460 cells; assay: Calreticulin translocation to plasma membrane, H460; assay type: cell-based, human; conditions: H460, NHS, compared to negative controls
Experimental: (§1) H460 or A549 cells were treated for 2.5 hr with 1, medium; 2, NHS and CFH mAb (200 μg/ml); 3, NHS and IgG (200 μg/ml); or 4, NHS and Doxorubicin (25 μM).
(§2) In order to see if lung tumor cells undergoing CFH mAb-induced CDC send an ICD signal, human lung tumor cell lines (H460 and A549) were incubated in medium containing complement from the addition of NHS, and treated with CFH mAb, control antibody, or the known ICD inducer doxorubicin (Kepp et al. Oncoimmunology 2014; 3:e955691; Krysko et al. Nat Rev Cancer 2012; 12:860-75.). […] Total calreticulin in whole cell lysates was the same under all conditions.

[2] = test system: A549 cells; assay: Calreticulin translocation to plasma membrane, A549; assay type: cell-based, human; conditions: A549, NHS, compared to negative controls
Experimental: as §1, §2

[3] = biological target: T1, reduced Complement Factor H (CFH) (human, UniProt P08603 19-1231, disulfide bonds reduced with TCEP); assay: western blot (immunoblot) on native and TCEP-reduced CFH
T1 construct: also called reduced CFH; CFH treated with TCEP
T1 sequence (P08603 19-1231 limits assumed): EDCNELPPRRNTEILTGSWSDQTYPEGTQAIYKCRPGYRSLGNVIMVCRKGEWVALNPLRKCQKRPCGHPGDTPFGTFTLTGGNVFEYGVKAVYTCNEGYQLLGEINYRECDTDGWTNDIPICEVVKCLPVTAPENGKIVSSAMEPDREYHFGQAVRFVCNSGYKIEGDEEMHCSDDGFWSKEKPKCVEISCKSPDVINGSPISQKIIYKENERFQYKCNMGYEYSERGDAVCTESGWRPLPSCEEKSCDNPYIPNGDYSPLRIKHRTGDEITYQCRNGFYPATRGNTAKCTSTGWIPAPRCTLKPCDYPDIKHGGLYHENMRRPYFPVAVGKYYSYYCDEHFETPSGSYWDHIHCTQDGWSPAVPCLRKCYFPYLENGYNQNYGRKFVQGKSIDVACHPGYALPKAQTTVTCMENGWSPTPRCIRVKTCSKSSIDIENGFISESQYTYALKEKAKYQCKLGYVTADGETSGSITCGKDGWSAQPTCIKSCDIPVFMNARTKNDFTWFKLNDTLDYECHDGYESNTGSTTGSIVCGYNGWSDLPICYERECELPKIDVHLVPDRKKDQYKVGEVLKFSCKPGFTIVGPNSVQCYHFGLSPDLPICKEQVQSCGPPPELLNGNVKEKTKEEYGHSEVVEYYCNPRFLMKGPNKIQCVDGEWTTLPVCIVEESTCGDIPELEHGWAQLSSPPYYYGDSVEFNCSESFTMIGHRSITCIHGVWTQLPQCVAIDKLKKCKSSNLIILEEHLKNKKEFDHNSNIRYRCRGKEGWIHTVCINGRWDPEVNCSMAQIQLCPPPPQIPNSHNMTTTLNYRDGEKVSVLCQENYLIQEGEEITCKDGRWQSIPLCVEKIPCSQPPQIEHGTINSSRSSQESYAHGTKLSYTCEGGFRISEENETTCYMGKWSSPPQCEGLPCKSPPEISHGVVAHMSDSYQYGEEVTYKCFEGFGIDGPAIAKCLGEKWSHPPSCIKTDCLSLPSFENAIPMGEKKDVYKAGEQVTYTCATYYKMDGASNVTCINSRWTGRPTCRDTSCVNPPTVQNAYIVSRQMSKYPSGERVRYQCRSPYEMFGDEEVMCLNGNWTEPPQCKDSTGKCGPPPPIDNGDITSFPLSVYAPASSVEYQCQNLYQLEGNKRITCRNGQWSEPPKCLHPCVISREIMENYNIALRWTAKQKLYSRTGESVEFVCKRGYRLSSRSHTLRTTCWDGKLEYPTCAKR
Experimental: Equimolar amounts of CFH and SCR19-20 proteins (~150 kDa and ~15 kDa, respectively) were treated with Tris-HCl (oxidized) or TCEP (reduced) prior to electrophoresis. The proteins were transferred to PVDF, and the membranes were placed into a "Surf-Blot" apparatus for immunoblot analysis. […] Binding was visualized with an antihuman IgG-HRP conjugate and chemiluminescent substrate, exposing the entire blot to one piece of film.

Molecule | plasma membrane calreticulin [1] | plasma membrane calreticulin [2] | binding result [3]
COc1cccc2c1C(=O)c1c(O)c3c(c(O)c1C2=O)C[C@@](O)(C(=O)CO)C[C@@H]3O[C@H]1C[C@H](N)[C@H](O)[C@H](C)O1 [doxorubicin, reference compound] | increases in plasma membrane calreticulin | increases in plasma membrane calreticulin | 
B1 |  |  | binds
